The test system of the first test is human RS virus A2 strain. Briefly: In vitro test for anti-RS virus proliferation inhibitory activity (quantitative RT-PCR of RS virus RNA copy number in infected Vero cells). To be noted: 72 h; Vero cells infected with human RS virus A2 strain, 3 days of incubation, RS virus N gene RNA copy number by quantitative RT-PCR; read-out: Anti-RS virus Activity. In kind it is cell-based. The essentials: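 Vero cells infected with RSV A2 (1.7×10^4 TCID50/mL in inoculum mix) with compound in 10% FCS EMEM, 3 days at 37 °C, 5% CO2. Lysate viral N-gene RNA quantified by one-step SYBR qRT-PCR; copy number by comparative Ct relative to untreated infected cells.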
Regarding `CC(C)CS(=O)(=O)N1CCC[C@H]1c1nc(CCCc2ccccc2)no1` [Compound 1A, 3-(3-phenylpropyl)-5-[(2S)-1-isobutylsulfonylpyrrolidin-2-yl]-1,2,4-oxadiazole], the IC50 is above 50 µM.
Regarding `CC(C)CS(=O)(=O)N1CCCC[C@H]1c1nc(CCCc2ccccc2)no1` [Compound 2A, 3-(3-phenylpropyl)-5-[(2S)-1-isobutylsulfonylpiperidin-2-yl]-1,2,4-oxadiazole], the IC50 was in the range of 10 to 50 µM.
Turning to `O=S(=O)(C1CCCCC1)N1CCC[C@H]1c1nc(CCCc2ccccc2)no1` [Compound 1B, 3-(3-phenylpropyl)-5-[(2S)-1-cyclohexylsulfonylpyrrolidin-2-yl]-1,2,4-oxadiazole], the IC50 lay in the range of 10 to 50 µM.
Same read-out and setting: in the case of `CC(C)(C)OC(=O)N1CCCC[C@H]1c1nc(CCCc2ccccc2)no1` [Compound 2-1, 3-(3-phenylpropyl)-5-[(2S)-1-tert-butoxycarbonylpiperidin-2-yl]-1,2,4-oxadiazole] it was 10 to 50 µM; in that of `CC(C)(C)OC(=O)N1C[C@H](O)C[C@H]1c1nc(CCCc2ccccc2)no1` [Compound 3-1, 3-(3-phenylpropyl)-5-[(2S,4R)-1-tert-butoxycarbonyl-4-hydroxypyrrolidin-2-yl]-1,2,4-oxadiazole], above 50 µM.
On the same count and under the same terms, the result for `O=S(=O)(Cc1ccccc1)N1CCCC[C@H]1c1nc(CCCc2ccccc2)no1` [Compound 2E, 3-(3-phenylpropyl)-5-[(2S)-1-benzylsulfonylpiperidin-2-yl]-1,2,4-oxadiazole] reads below 10 µM; that for `CC(C)(C)O[C@@H]1C[C@@H](c2nc(CCCc3ccccc3)no2)N(C(=O)c2ccc3cc(C(=O)N4C[C@H](OC(C)(C)C)C[C@H]4c4nc(CCCc5ccccc5)no4)ccc3c2)C1` [Compound 4-4, Naphthalene-2,6-diylbis (((2S,4R)-4-(tert-butoxy)-2-(3-(3-phenylpropyl)-1,2,4-oxadiazol-5-yl)pyrrolidin-1-yl)methanone)], above 50 µM.
In the case of `CC(C)(C)OC(=O)N1CCC[C@H]1c1nc(CCCc2ccccc2)no1` [Compound 1-1, 3-(3-phenylpropyl)-5-[(2S)-1-tert-butoxycarbonylpyrrolidin-2-yl]-1,2,4-oxadiazole], the IC50 was above 50 µM.
On to `O=S(=O)(c1ccccc1)N1CCC[C@H]1c1nc(CCCc2ccccc2)no1` [Compound 1D, 3-(3-phenylpropyl)-5-[(2S)-1-benzenesulfonylpyrrolidin-2-yl]-1,2,4-oxadiazole], for which the IC50 was 10 to 50 µM.

The test is the same for the next values; noted with them: 72 h; Vero cells infected with human RS virus A2 strain, 3 days of incubation, RS virus RNA copy number by quantitative RT-PCR; read-out: Anti-RS virus Activity.
`O=C(Oc1ccccc1)N1CCC[C@H]1c1nc(CCCc2ccccc2)no1` [Compound 1M, Phenyl (S)-2-(3-(3-phenylpropyl)-1,2,4-oxadiazol-5-yl)pyrrolidine-1-carboxylate]: the IC50 fell in the range of 10 to 50 µM.
Take `O=S(=O)(Cc1ccccc1)N1CC2(CC2)C[C@H]1c1nc(CCCc2ccccc2)no1` [Compound 5E, 3-(3-Phenylpropyl)-5-{(6S)-5-benzylsulfonyl-5-azaspiro[2.4]hept-6-yl}-1,2,4-oxadiazole]: the IC50 lay within 10 to 50 µM.
The same measure, in the same setting: the result for `CS(=O)(=O)N1C[C@H]2CC[C@]1(c1nc(CCc3ccccc3)no1)CC2` [Compound 15C, 5-((1s,4s)-2-(methylsulfonyl)-2-azabicyclo[2.2.2]octan-1-yl)-3-phenethyl-1,2,4-oxadiazole] reads 10 to 50 µM; that for `CN(C)c1ccc(S(=O)(=O)N2C[C@H](F)C[C@H]2c2nc(CCCc3ccccc3)no2)cc1` [Compound 8AK, 4-(((2S,4R)-4-fluoro-2-(3-(3-phenylpropyl)-1,2,4-oxadiazole-5-yl)pyrrolidin-1-yl)sulfonyl)-N,N-dimethylaniline], below 10 µM; that for `COc1ccc(S(=O)(=O)N2C[C@H](c3ccccc3)C[C@H]2c2nc(CCCc3ccccc3)no2)cc1` [Compound 7AI, 5-((2S,4S)-1-((4-methoxyphenyl)sulfonyl)-4-phenylpyrrolidin-2-yl)-3-(3-phenylpropyl)-1,2,4-oxadiazole], below 10 µM.
On the same count and under the same terms, the result for `Fc1ccc(CN2CCC[C@H]2c2nc(CCCc3ccccc3)no2)cc1` [Compound 1V, (S)-5-(1-(4-fluorobenzyl)pyrrolidin-2-yl)-3-(3-phenylpropyl)-1,2,4-oxadiazole] reads below 10 µM; that for `O=S(=O)(N1CCCCC1)n1nc([C@H]2N[C@@H]3CC[C@H]2C3)nc1CCc1ccncc1` [25AD′], 10 to 50 µM; that for `Cc1sc([C@@H]2CCCCN2S(=O)(=O)C2CCCCC2)nc1C(=O)O` [Compound 36B, (S)-2-(1-(Cyclohexylsulfonyl)piperidin-2-yl)-5-methyl thiazole-4-carboxylic acid], below 10 µM.
As to `O=S(=O)(N1CCOCC1)N1CC(CC2CCC2)CC1c1nc(CCCc2ccccc2)no1` (centres unmarked) [Compound 6AE, 4-((4-(cyclobuthylmethyl)-2-(3-(3-phenylpropyl)-1,2,4-oxadiazole-5-yl)pyrrolidin-1-yyl)sulfonyl)morpholine], the IC50 lay in the range of 10 to 50 µM.
On the same count and under the same terms, in the case of `CC(C)(C)OC(=O)N1C[C@@H](CC2CCC2)C[C@H]1c1nc(CCCc2ccccc2)no1` (racemic) [Compound 6-1, 3-(3-phenylpropyl)-5-(1-tert-butoxycarbonyl-4-cyclobutylmethylpyrrolidin-2-yl)-1,2,4-oxadiazole] it was below 10 µM.
For `COC(=O)c1nc([C@@H]2CCCCN2S(=O)(=O)C2CCCCC2)[nH]c1C` [Compound 38B, Methyl (S)-2-(1-(cyclohexylsulfonyl)piperidin-2-yl)-5-methyl-1H-Imidazole-4-carboxylate], the IC50 lay in the range of 10 to 50 µM.
As for `O=C(NCc1noc([C@@H]2C[C@@H](c3ccccc3)CN2S(=O)(=O)c2ccc(F)cc2)n1)c1ccc2ccccc2n1` [Compound 45AJ, N-((5-((2S,4S)-1-((4-fluorophenyl)sulfonyl)-4-phenylpyrrolidin-2-yl)-1,2,4-oxadiazol-3-yl)methyl)quinoline-2-carboxamide], the IC50 fell in the range of 10 to 50 µM.
Turning to `CC(C)CS(=O)(=O)N1[C@@H]2CC[C@@H](C2)[C@H]1c1nc(CCc2ccccc2)no1` [Compound 14A, 5-((1R,3S,4S)-2-(isobutylsulfonyl)-2-azabicyclo[2.2.1]heptan-3-yl)-3-phenethyl-1,2,4-oxadiazole], the IC50 was in the range of 10 to 50 µM.
As to `O=S(=O)(Cc1ccccc1)N1C[C@H](F)C[C@H]1c1nc(CCCc2ccccc2)no1` [Compound 8E, 3-(3-phenylpropyl)-5-[(2S,4R)-1-benzylsulfonyl-4-fluoropyrrolidin-2-yl]-1,2,4-oxadiazole], the IC50 is below 10 µM.
With `O=C(Cc1ccccc1)N1CCCC[C@H]1c1nc(CCCc2ccccc2)no1` [Compound 2P, (S)-2-Phenyl-1-(2-(3-(3-phenylpropyl)-1,2,4-oxadiazol-5-yl)piperidin-1-yl)ethan-1-one], the IC50 is below 10 µM.
Turning to `CC(C)CS(=O)(=O)N1C[C@H](F)C[C@H]1c1nc(CCCc2ccccc2)no1` [Compound 8A, 3-(3-phenylpropyl)-5-[(2S,4R)-1-isobutylsulfonyl-4-fluoropyrrolidin-2-yl]-1,2,4-oxadiazole], the IC50 fell in the range of 10 to 50 µM.
In the case of `O=C(NCc1cnc2ccccc2c1)N1[C@@H]2CC[C@@H](C2)[C@H]1c1nnc(Cc2cc3ccccc3[nH]2)[nH]1` [Compound 28AH], the IC50 fell in the range of 10 to 50 µM.
Regarding `CC(C)(C)OC(=O)N1C[C@H](c2ccccc2)C[C@H]1c1nc(CCCCc2ccccc2)no1` [Compound C4-7-1, Tert-butyl (2S,4S)-4-phenyl-2-(3-(4-phenylbutyl)-1,2,4-oxadiazol-5-yl)pyrrolidine-1-carboxylate], the IC50 was below 10 µM.
Same read-out and setting: the result for `COC(=O)N1CCC[C@H]1c1nc(CCCc2ccccc2)no1` [Compound 1K, Methyl (S)-2-(3-(3-phenylpropyl)-1,2,4-oxadiazol-5-yl) pyrrolidine-1-carboxylate] reads 10 to 50 µM; that for `CC(C)(C)OC(=O)N1CC2(CC2)C[C@H]1c1nc(CCCc2ccccc2)no1` [Compound 5-1, 3-(3-phenylpropyl)-5-{(6S)-5-tert-butoxycarbonyl-5-azaspiro[2.4]hept-6-yl}-1,2,4-oxadiazole], below 10 µM; that for `c1ccc(CCCc2noc([C@@H]3CCCCN3Cc3ccccc3)n2)cc1` [Compound 2AA, (S)-5-(1-benzylpiperidin-2-yl)-3-(3-phenylpropyl)-1,2,4-oxadiazole], 10 to 50 µM.
On to `CN(C)c1cccc2c(S(=O)(=O)N3C[C@H](c4ccccc4)C[C@H]3c3nc(CCCc4ccccc4)no3)cccc12` [Compound 7AL, N,N-dimethyl-5-(((2S,4S)-4-phenyl2-(3-(3-phenylpropyl)-1,2,4-oxadiazole-5-yl)pyrrolidin-1-yl)sulfonyl)naphthalen-1-amine], for which the IC50 was below 10 µM.
The same measure, in the same setting: in the case of `CC(C)(C)OC(=O)N1CCC(S(=O)(=O)N2C[C@H](c3ccccc3)C[C@H]2c2nc(CCCc3ccccc3)no2)CC1` [Compound 7AO] it was below 10 µM.
On the same count and under the same terms, in the case of `c1ccc(CCCc2noc([C@@H]3CCCN3CC3CCCCC3)n2)cc1` [Compound 1U, (S)-5-(1-(cyclohexylmethyl)pyrrolidin-2-yl)-3-(3-phenylpropyl)-1,2,4-oxadiazole] it was below 10 µM; in that of `NC(=O)[C@H]1C[C@@H](c2nc(CCCc3ccccc3)no2)N(S(=O)(=O)c2ccc(F)cc2)C1` [Compound 42AJ, (3S,5S)-1-((4-fluorophenyl)sulfonyl)-5-(3-(3-phenylpropyl)-1,2,4-oxadiazol-5-yl)pyrrolidine-3-carboxamide], 10 to 50 µM.

Staying with this test, now noted: Vero, 72 h, read-out: Anti-RS virus Activity.
With `O=S(=O)(N1CCCCC1)N1CCCC[C@H]1c1nc(CCCc2ccccc2)no1` [Compound 2AD, (S)-3-(3-phenylpropyl)-5-(1-(piperidine-1-ylsulfonyl)piperidin-2-yl)-1,2,4-oxadiazole], the IC50 was below 10 µM.
